# Measurements: US9995734B2, “Human T cell line assay for evaluating the immunologic identity of glatiramer acetate preparations” (Mylan Inc., priority 2013, dated 2018)
# Tested on: Donor 1 COP T-Cell Lines
# Assay: Multiplex bead cytokine assay (FlowCytoMix), Donor 1 COP T-cell lines
# Type: cell-based, human
# Experimental: Culture medium was removed from cultures prepared as for proliferation assay and utilized to measure cytokine production. In most cases culture medium was collected 18-24 hours after mixing T-cells, APC, and stimulating antigen. Cytokine production was measured by ELISA or bead assay. For measuring cytokine production, 100-150 μL culture medium (100 μL if culture was to be continued, otherwise 150 μL) was removed from each well. In some cases, the culture was continued 48 hours, for a total of 72 hours of culture, and the proliferative response measured.
# The concentration of multiple cytokines was measured simultaneously using FlowCytoMix™ kits (eBioscience, San Diego Calif.). These are fluorescent bead based assays consisting of beads conjugated to anti cytokine antibodies. Beads specific for each cytokine are distinguished by size and fluorescence at 670 run. Cytokine bound to each bead is detected using a phycoerythrin conjugated antibody so that the fluorescence at 585 nm reflects the concentration of cytokine in the sample. Two kits were utilized which measured different cytokine panels. The TH1/TH2 kit measures IFN-γ, IL-1β, IL-2, IL-4, IL-5, IL-6, IL-8, IL-10, IL-12p70, TNF-α (TNF) and TNF-β (LT). The TH1/TH2/TH9/TH17/TH22 kit measures […], IL-1β, IL-2, IL-4, IL-5, IL-6, IL-9, IL-10, IL-12p70, IL-13, IL-17, IL-22, and TNF-α (TNF). Both kits were used following the manufacturer's instructions.
# IL-12p70, IFN-γ, IL-2, IL-10, IL-8, IL-6, IL-5, IL-4, IL-1β, TNF-α (TNF), and TNF-β (LT) secretion were measured in response to stimulation with 1, 3, or 10 μg/mL GMA, or 1, 3, or 10 μg/mL COP, as well as a no-antigen control and an MBP control, in the presence of autologous EBV-transformed B-LCL.
# [1] = 222-2B8, 3 μg/mL, 24 hours after Day 56 restimulation
# [2] = 222-2B8, 10 μg/mL, 24 hours after Day 56 restimulation
# [3] = 222-2D2, 10 μg/mL, Day 34 supernatants
# [4] = 222-2D8, 10 μg/mL, Day 34 supernatants
# [5] = 222-2E1, 1 μg/mL, 24 hours after Day 56 restimulation
# [6] = 222-2E1, 3 μg/mL, 24 hours after Day 56 restimulation
# [7] = 222-2E1, 10 μg/mL, 24 hours after Day 56 restimulation
# [8] = 222-B11 (so in the source), 1 μg/mL, 24 hours after Day 56 restimulation
# [9] = 222-B11 (so in the source), 3 μg/mL, 24 hours after Day 56 restimulation
# [10] = 222-B11 (so in the source), 10 μg/mL, 24 hours after Day 56 restimulation
substance,measurement,setting,value
glatiramer acetate [GMA],IFN-γ,[1],44.52 pg/mL
same,IL-2,[1],1.6 pg/mL
same,IL-5,[1],78.29 pg/mL
same,IL-10,[1],1.8 pg/mL
same,IL-13,[1],1214.45 pg/mL
same,IL-22,[1],63.98 pg/mL
same,TNF-α,[1],0 pg/mL
same,IFN-γ,[2],140.65 pg/mL
same,IL-2,[2],0 pg/mL
same,IL-5,[2],400.46 pg/mL
same,IL-10,[2],41 pg/mL
same,IL-13,[2],3162.51 pg/mL
same,IL-22,[2],124.15 pg/mL
same,TNF-α,[2],96.57 pg/mL
same,IFN-γ,[3],53.75 pg/mL
same,IL-1β,[3],103.85 pg/mL
same,IL-2,[3],55.42 pg/mL
same,IL-5,[3],29.13 pg/mL
same,IL-8,[3],<= 0 pg/mL
same,IL-10,[3],26.12 pg/mL
same,TNF-α,[3],5.35 pg/mL
same,TNF-β,[3],5.79 pg/mL
same,"IL-4, IL-6, or IL-12 detected","222-2D8, 222-1H12, 222-1C5, 222-2D2, Day 34 supernatants",Little or no
same,IFN-γ,[4],2616 pg/mL
same,IL-1β,[4],2420 pg/mL
same,IL-2,[4],52 pg/mL
same,IL-4,[4],41 pg/mL
same,IL-5,[4],1501 pg/mL
same,IL-10,[4],107 pg/mL
same,TNF-α,[4],405 pg/mL
same,TNF-β,[4],243 pg/mL
same,IFN-γ,[5],49.11 pg/mL
same,IL-2,[5],0 pg/mL
same,IL-5,[5],0 pg/mL
same,IL-10,[5],0 pg/mL
same,IL-13,[5],146.02 pg/mL
same,IL-22,[5],21.77 pg/mL
same,TNF-α,[5],9.36 pg/mL
same,IFN-γ,[6],162.68 pg/mL
same,IL-2,[6],0 pg/mL
same,IL-5,[6],0 pg/mL
same,IL-10,[6],7.1 pg/mL
same,IL-13,[6],1050.77 pg/mL
same,IL-22,[6],25.71 pg/mL
same,TNF-α,[6],65.44 pg/mL
same,IFN-γ,[7],349.76 pg/mL
same,IL-2,[7],0 pg/mL
same,IL-5,[7],128.4 pg/mL
same,IL-10,[7],16.33 pg/mL
same,IL-13,[7],2036.36 pg/mL
same,IL-22,[7],0 pg/mL
same,TNF-α,[7],170.24 pg/mL
same,IFN-γ,[8],0 pg/mL
same,IL-2,[8],0 pg/mL
same,IL-5,[8],0 pg/mL
same,IL-10,[8],1.3 pg/mL
same,IL-13,[8],29.41 pg/mL
same,IL-22,[8],42.51 pg/mL
same,TNF-α,[8],0 pg/mL
same,IFN-γ,[9],0 pg/mL
same,IL-2,[9],0 pg/mL
same,IL-5,[9],0 pg/mL
same,IL-10,[9],0 pg/mL
same,IL-13,[9],133.55 pg/mL
same,IL-22,[9],51.87 pg/mL
same,TNF-α,[9],0 pg/mL
same,IFN-γ,[10],37.79 pg/mL
same,IL-2,[10],0 pg/mL
same,IL-5,[10],94.56 pg/mL
same,IL-10,[10],0.4 pg/mL
same,IL-13,[10],1563.22 pg/mL
same,IL-22,[10],0 pg/mL
same,TNF-α,[10],0 pg/mL
same,IFN-γ production,"Line 105 (so in the source), Table 14 = 222-1C5, after appropriate dilution of supernatants",comparable amounts
